Experimental data published in US9695155B2, “Herbicidal substituted pyrimidinyloxy benzene compounds” (E. I. DU PONT DE NEMOURS AND COMPANY, priority 2013, dated 2017).

Assays:
[1] = tested on: canarygrass; assay: Test D preemergence; type: in vivo, Phalaris minor
Source text: (§1) Seeds of plant species selected from bluegrass (annual bluegrass, Poa annua), blackgrass (Alopecurus myosuroides), canarygrass (littleseed canarygrass, Phalaris minor), chickweed (common chickweed, Stellaria media), galium (catchweed bedstraw, Galium aparine), bromegrass, downy (downy bromegrass, Bromus tectorum), field poppy (Papaver rhoeas), field violet (Viola arvensis), green foxtail (Setaria viridis), deadnettle (henbit deadnettle, Lamium amplexicaule), Italian ryegrass (Lolium multiflorum), kochia (Kochia scoparia), lambsquarters (Chenopodium album), oilseed rape (Brassica napus), pigweed (Amaranthus retroflexus), chamomile (scentless chamomile, Matricaria inodora), Russian thistle (Salsola kali), speedwell (bird's-eye speedwell, Veronica persica), spring barley (Hordeum vulgare), spring wheat (Triticum aestivum), wild buckwheat (Polygonum convolvulus), wild mustard (Sinapis arvensis), wild oat (Avena fatua), wild radish (Raphanus raphanistrum), windgrass (Apera spica-venti), winter barley (Hordeum vulgare), and winter wheat (Triticum aestivum) were planted into a silt loam soil and treated preemergence with test chemicals formulated in a non-phytotoxic solvent mixture which included a surfactant.
(§2) At the same time, these species were planted in pots containing Redi-Earth® planting medium (Scotts Company, 14111 Scottslawn Road, Marysville, Ohio 43041) comprising spaghnum peat moss, vermiculite, wetting agent and starter nutrients and treated with postemergence applications of the test chemicals formulated in the same manner. Plants ranged in height from 2 to 18 cm (1- to 4-leaf stage). Treated plants and controls were maintained in a controlled growth environment for 7 to 21 days after which time all species were compared to controls and visually evaluated. Plant response ratings, summarized in Table D, are based on a scale of 0 to 100 where 0 is no effect and 100 is complete control. A dash (-) response means no test result.

[2] = tested on: Italian ryegrass; assay: Test D preemergence; type: in vivo, Lolium multiflorum
Source text: as §1, §2

[3] = tested on: wild mustard; assay: Test D preemergence; type: in vivo, Sinapis arvensis
Source text: as §1, §2

[4] = tested on: blackgrass; assay: Test D postemergence; type: in vivo, Alopecurus myosuroides
Source text: as §1, §2

[5] = tested on: pigweed; assay: Test D preemergence; type: in vivo, Amaranthus retroflexus
Source text: as §1, §2

[6] = tested on: speedwell; assay: Test D preemergence; type: in vivo, Veronica persica
Source text: as §1, §2

[7] = tested on: windgrass; assay: Test D postemergence; type: in vivo, Apera spica-venti
Source text: as §1, §2

[8] = tested on: wild radish; assay: Test D postemergence; type: in vivo, Raphanus raphanistrum
Source text: as §1, §2

[9] = tested on: chamomile; assay: Test D postemergence; type: in vivo, Matricaria inodora
Source text: as §1, §2

[10] = tested on: windgrass; assay: Test D preemergence; type: in vivo, Apera spica-venti
Source text: as §1, §2

[11] = tested on: lambsquarters; assay: Test D preemergence; type: in vivo, Chenopodium album
Source text: as §1, §2

[12] = tested on: chickweed; assay: Test D preemergence; type: in vivo, Stellaria media
Source text: as §1, §2

[13] = tested on: wild buckwheat; assay: Test D postemergence; type: in vivo, Polygonum convolvulus
Source text: as §1, §2

[14] = tested on: green foxtail; assay: Test D postemergence; type: in vivo, Setaria viridis
Source text: as §1, §2

[15] = tested on: nutsedge, purple; assay: Test F preemergence; type: in vivo, Cyperus rotundus; conditions: 21 days, scale 0 to 100
Source text: (§3) Seeds of plant species selected from bermudagrass (Cynodon dactylon), surinam grass (Brachiaria decumbens), large (Lg) crabgrass (Digitaria sanguinalis), crabgrass, naked (naked crabgrass, Digitaria nuda), foxtail, green (green foxtail, Setaria viridis), johnsongrass (Sorghum halepense), kochia (Kochia scoparia), morningglory (pitted morningglory, Ipomoea lacunosa), nutsedge, purple (purple nutsedge, Cyperus rotundus), ragweed (common ragweed, Ambrosia elatior), mustard, black (black mustard, Brassica nigra), guineagrass (Panicum maximum), dallisgrass (Paspalum dilatatum), barnyardgrass (Echinochloa crus-galli), sandbur (southern sandbur, Cenchrus echinatus), sowthistle (common sowthistle, Sonchus oleraceous), Italian ryegrass (Lolium multiflorum), signalgrass (broadleaf signalgrass, Brachiaria platyphylla), dayflower (Virginia (VA) dayflower, Commelina virginica), bluegrass (annual bluegrass, Poa annua), quackgrass (Elytrigia repens), mallow (common mallow, Malva sylvestris), buckwheat, wild (wild buckwheat, Polygonum convolvulus), leafy spurge (Euphorbia esula), chickweed (common chickweed, Stellaria media), wild poinsettia (Euphorbia heterophylla), and pigweed (Amaranthus retroflexus) were planted into a blend of loam soil and sand and treated preemergence with test chemicals formulated in a non-phytotoxic solvent mixture which included a surfactant.
(§4) Treated plants and controls were maintained in a greenhouse for 21 days, after which time all species were compared to controls and visually evaluated. Plant response ratings, summarized in Table F, are based on a scale of 0 to 100 where 0 is no effect and 100 is complete control. A dash (-) response means no test result.

[16] = tested on: ragweed; assay: Test F preemergence; type: in vivo, Ambrosia elatior; conditions: 21 days, scale 0 to 100
Source text: as §3, §4

[17] = 16 g ai/ha, scale 0 (no effect) to 100 (complete control)
[18] = 31 g ai/ha, scale 0 (no effect) to 100 (complete control)
[19] = Postemergence, 62 g ai/ha, scale 0 to 100 (0 no effect, 100 complete control)
[20] = Postemergence, 31 g ai/ha, scale 0 to 100 (0 no effect, 100 complete control)
[21] = Postemergence, 125 g ai/ha, scale 0 to 100 (0 no effect, 100 complete control)
[22] = postemergence, 16 g ai/ha, scale 0 to 100, 0 no effect, 100 complete control
[23] = 31 g ai/ha, scale 0 to 100 (0 no effect, 100 complete control)
[24] = 62 g ai/ha, scale 0 to 100 (0 no effect, 100 complete control)
[25] = 125 g ai/ha, scale 0 to 100 (0 no effect, 100 complete control)

`FCc1cccc(Oc2ncc(Cl)cn2)c1-n1cc(I)cn1` [Compound 245] was tested, and the “Plant response rating, Canarygrass” value [1, 17] was 0, the “Plant response rating, Canarygrass” value ([1]; 31 g ai/ha, scale 0-100) was 0 and the “Plant response rating, Canarygrass” value ([1]; 62 g ai/ha, scale 0-100) was 15. The “Plant response rating, Canarygrass” value ([1]; 125 g ai/ha, scale 0-100) was 35, the “Plant response rating, Ryegrass, Italian” value [2, 17] was 15 and the “Plant response rating, Ryegrass, Italian” value [2, 18] was 15. For the same molecule, the “Plant response rating, Ryegrass, Italian” value ([2]; 125 g ai/ha, scale 0-100) was 40, the “Plant response rating, Mustard, Wild” value [3, 17] was 80 and the “Plant response rating, Mustard, Wild” value ([3]; 31 g ai/ha, scale 0-100) was 80. The “Plant response rating, Mustard, Wild” value ([3]; 62 g ai/ha, scale 0-100) was 85, the “Plant response rating, Mustard, Wild” value ([3]; 125 g ai/ha, scale 0-100) was 100 and the “Plant response rating, Blackgrass” value [4, 19] was 20. For the same molecule, the “Plant response rating, Blackgrass” value [4, 20] was 10, the “Plant response rating, Blackgrass” value [4, 21] was 25 and the “Plant response rating, Blackgrass” value [4, 22] was 5. The “Plant response rating, Pigweed” value [5, 17] was 98, the “Plant response rating, Pigweed” value [5, 18] was 100 and the “Plant response rating, Pigweed” value ([5]; 125 g ai/ha, scale 0-100) was 100. For the same molecule, the “Plant response rating, Speedwell” value [6, 17] was 5, the “Plant response rating, Speedwell” value [6, 18] was 100 and the “Plant response rating, Speedwell” value ([6]; 125 g ai/ha, scale 0-100) was 100. The “Plant response rating, Windgrass” value ([7]; 16 g ai/ha, scale 0-100) was 10, the “Plant response rating, Windgrass” value [7, 23] was 15 and the “Plant response rating, Windgrass” value [7, 24] was 15. The “Plant response rating, Windgrass” value [7, 25] was 25, the “Plant response rating, Radish, Wild” value ([8]; 16 g ai/ha, scale 0-100) was 35 and the “Plant response rating, Radish, Wild” value [8, 23] was 45. The “Plant response rating, Radish, Wild” value [8, 24] was 55, the “Plant response rating, Radish, Wild” value [8, 25] was 85 and the “Plant response rating, Chamomile” value ([9]; 16 g ai/ha, scale 0-100) was 30. The “Plant response rating, Chamomile” value [9, 23] was 30, the “Plant response rating, Chamomile” value [9, 24] was 45 and the “Plant response rating, Chamomile” value [9, 25] was 40. The “Plant response rating, Windgrass” value [10, 17] was 5, the “Plant response rating, Windgrass” value [10, 18] was 15 and the “Plant response rating, Windgrass” value ([10]; 125 g ai/ha, scale 0-100) was 60. For the same molecule, the “Plant response rating, Lambsquarters” value [11, 17] was 85, the “Plant response rating, Lambsquarters” value ([11]; 31 g ai/ha, scale 0-100) was 100 and the “Plant response rating, Lambsquarters” value ([11]; 62 g ai/ha, scale 0-100) was 100. The “Plant response rating, Lambsquarters” value ([11]; 125 g ai/ha, scale 0-100) was 100, the “Plant response rating, Chickweed” value [12, 17] was 55 and the “Plant response rating, Chickweed” value ([12]; 31 g ai/ha, scale 0-100) was 85. For the same molecule, the “Plant response rating, Chickweed” value ([12]; 62 g ai/ha, scale 0-100) was 100, the “Plant response rating, Chickweed” value ([12]; 125 g ai/ha, scale 0-100) was 100 and the “Plant response rating, Buckwheat, Wild” value [13, 19] was 75. For the same molecule, the “Plant response rating, Buckwheat, Wild” value [13, 20] was 70, the “Plant response rating, Buckwheat, Wild” value [13, 21] was 90 and the “Plant response rating, Buckwheat, Wild” value [13, 22] was 70. For the same molecule, the “Plant response rating, Foxtail, Green” value ([14]; 16 g ai/ha, scale 0-100) was 10, the “Plant response rating, Foxtail, Green” value [14, 23] was 20 and the “Plant response rating, Foxtail, Green” value [14, 24] was 35. The “Plant response rating, Foxtail, Green” value [14, 25] was 45.

In the case of `N#Cc1cccc(Oc2ncc(F)cn2)c1-n1cc(C(F)(F)F)cn1` [Compound 79, 3-[(5-fluoro-2-pyrimidinyl)oxy]-2-[4-(trifluoromethyl)-1H-pyrazol-1-yl]benzonitrile], the “Plant response rating, Nutsedge, Purple” value ([15]; 16 g ai/ha) is reported as 0, the “Plant response rating, Nutsedge, Purple” value ([15]; 31 g ai/ha) is reported as 10 and the “Plant response rating, Nutsedge, Purple” value ([15]; 62 g ai/ha) is reported as 70. The “Plant response rating, Nutsedge, Purple” value ([15]; 125 g ai/ha) was 70, the “Plant response rating, Nutsedge, Purple” value ([15]; 250 g ai/ha) was 85 and the “Plant response rating, Ragweed” value ([16]; 16 g ai/ha) was 25. The “Plant response rating, Ragweed” value ([16]; 31 g ai/ha) was 70, the “Plant response rating, Ragweed” value ([16]; 62 g ai/ha) was 98 and the “Plant response rating, Ragweed” value ([16]; 125 g ai/ha) was 100. The “Plant response rating, Ragweed” value ([16]; 250 g ai/ha) was 100.

`N#Cc1cccc(Oc2ncc(Cl)cn2)c1-n1cc(OC(F)F)cn1` [Compound 97] was tested, and the “Plant response rating, Nutsedge, Purple” value ([15]; 16 g ai/ha) was 15, the “Plant response rating, Nutsedge, Purple” value ([15]; 31 g ai/ha) was 35 and the “Plant response rating, Nutsedge, Purple” value ([15]; 62 g ai/ha) was 30. For the same molecule, the “Plant response rating, Nutsedge, Purple” value ([15]; 125 g ai/ha) was 75, the “Plant response rating, Nutsedge, Purple” value ([15]; 250 g ai/ha) was 90 and the “Plant response rating, Ragweed” value ([16]; 16 g ai/ha) was 10. The “Plant response rating, Ragweed” value ([16]; 31 g ai/ha) was 75, the “Plant response rating, Ragweed” value ([16]; 62 g ai/ha) was 85 and the “Plant response rating, Ragweed” value ([16]; 125 g ai/ha) was 95. For the same molecule, the “Plant response rating, Ragweed” value ([16]; 250 g ai/ha) was 100.
